The source of these data is patent US11285159B2 (AbbVie Inc., priority 2019, dated 2022).

The Ki is the equilibrium dissociation constant of an inhibitor or competing ligand from its target. The term EC50 denotes the concentration that produces a half-maximal response.

Like-named read-outs stand apart in the source and are kept apart here.

For data set [1], the system named is myeloproliferative neoplasm patient samples cultured ex vivo and myeloproliferative neoplasm-derived cell lines bearing the activating JAK-2 V617F mutation. The following applies: cited from earlier work.
Data set [2] has as its system myeloproliferative neoplasm cells; endogenous erythroid colonies representing malignant PV clones. The note with it: cited from earlier work.
The test system of data set [3] is spleen volume. Put plainly: exposure-spleen volume response model, parameter estimation (NONMEM). Details: species or system human. The following applies: spleen volume inhibition; R/R MF, cohort 1a data. The source says: Spleen volume data up to only week 40 was used in the model to improve model predictability. […] Inter-individual variability with full correlation matrix was incorporated on estimated baseline spleen volume, kout, EC50NAV and EC50RUX using exponential function and the residual variability was characterized using combined proportional and additive error model.
At baseline, the rates of the spleen volume model are set to be the same kin=kout due to a theoretical steady state assumption without treatment interference. This leads to an initial condition for the SV compartment of 1, where SV predictions are derived by multiplying this compartment with baseline. Disease progression was included in the model with the factor “Eprog” on “kin”.

Data set [4] deals with platelets. Put plainly: exposure-platelet response model, parameter estimation (NONMEM). Set-up: species or system human. From the text: The model was based on established models described in the literature (Kaefer, A., Yang, J., Noertersheuser, P. et al. Cancer Chemother Pharmacol (2014) 74: 593. doi:10.1007/s00280-014-2530-2530; and Friberg, Lena E., et al. “Model of chemotherapy-induced myelosuppression with parameter consistency across drugs. “Journal of clinical oncology 20.24 (2002): 4713-4721, both references hereby incorporated by reference in their entireties).
PK model for ruxolitinib was described by a two-compartment model with a lag-time in absorption (Equations 2a through 2c).
The time course of platelet response was modeled using a semi-physiological model that comprised a progenitor cell compartment, three transition compartments representing the maturation chain in the bone marrow and a peripheral blood compartment (see FIG. 2). A feedback system was used in this model to describe the increase in the maturation rate in bone marrow when the platelet level in the blood compartment is below baseline and decrease in the maturation rate when the platelet level in blood is above baseline. […] Equations 3 to 9 represent the PD model.
The model is initialized at 0 for the PK related compartments, at POOL for the PROLIF compartment, and at 1 for the maturation and circulation compartments. The platelet prediction is obtained by (Baseline Platelets)×PLT1×PLT2. The rates of the Platelet1 model are set to be the same ktrans=kin=kout due to a steady state assumption without treatment interference.
A factor was included on the baseline platelet count such that baseline(t=−84 days)=factor×baseline(t=0 days)
This yields a relative pseudo baseline at initiation of ruxolitinib (referred to as ‘ruxolitinib factor’ on baseline platelet count). […] The first 56 days of data were fitted to avoid influence of long-term disease effects on the model.
No inter-individual variability was estimated on ruxolitinib EC50 since limited data precluded its appropriate estimation.

For data set [5], the system named is 22 cell lines consisting of multiple leukemia and lymphoma types spanning both B-cell and T-cell malignancies. The following applies: cited from earlier work.
Data set [6] concerns platelets. The following applies: effect on platelets, cited from earlier work; for Ruxolitinib EC50: fixed to published value.
The target of data set [7] is T1, BCL-W (Homo sapiens, UniProt Q92843).
T1 sequence (Q92843 1-193): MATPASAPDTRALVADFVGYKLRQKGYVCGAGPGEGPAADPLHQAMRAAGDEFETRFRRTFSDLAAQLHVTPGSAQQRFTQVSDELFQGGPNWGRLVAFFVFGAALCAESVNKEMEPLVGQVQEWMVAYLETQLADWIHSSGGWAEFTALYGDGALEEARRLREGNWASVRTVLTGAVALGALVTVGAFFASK
The following applies: cited from earlier work.

Data set [8] relates to subjects with primary or secondary myelofibrosis. Put plainly: Phase 2 study of navitoclax in combination with ruxolitinib (Example 1). The source says: Treatment continued until the end of clinical benefit, unacceptable toxicity, or discontinuation. The primary efficacy endpoint was percentage reduction in splenic volume from baseline. Secondary endpoints included effect on total symptom score (TSS), overall response rate, rate of anemia response, improvement in bone marrow fibrosis, and safety profile.
For this study, inclusion criteria included the following: • 1. Subject must be ≥18 years of age. • 2. Subject has documented diagnosis of Intermediate or High-Risk Primary Myelofibrosis, Post-Polycythemia Vera Myelofibrosis (PPV-MF), or Post-Essential Thrombocythemia Myelofibrosis (PET-MF) as defined by the World Health Organization classification. • 3. Subject must be ineligible or unwilling to undergo stem cell transplantation at time of study entry. • 4. Subject must have an Eastern Cooperative Oncology Group (ECOG) Performance Score of 0, 1, or 2. • 5. […] Prior treatment with JAK-2 inhibitor for at least 12 weeks • b. Prior treatment with JAK-2 inhibitor for at least 28 days complicated by any of the following: • i. […] Splenic irradiation within 6 months prior to screening, or prior splenectomy. • 2. Leukemic transformation (>10% blasts in peripheral blood or bone marrow biopsy). • 3. Subject is currently on medications that interfere with coagulation (including warfarin) or platelet function with the exception of low dose aspirin (up to 100 mg) and low-molecular-weight heparin (LMWH). • 4. Prior therapy with a BH3 mimetic compound. • 5.
Subjects needed to have received ruxolitinib therapy for at least 12 weeks prior to study enrollment without interruption, have splenomegaly as defined by a spleen palpable ≥5 cm below costal margin and be currently on a stable dose of ≥10 mg BID of ruxolitinib.

For data set [9], the system named is tumors in mice bearing the Eμ-TEL-JAK-2 transgene or PDX mice bearing JAK-2-mutated B-ALL cells. The following applies: cited from earlier work.
Data set [10] in a line: co-administration of navitoclax with rifampin. Format: in vivo, human. The note with it: 600 mg once daily rifampin for 4 days; 11 subjects with cancer. From the text:
Increased dosage should be made with frequent monitoring of safety and efficacy.

The subject of data set [11] is human tumor cell lines derived from small cell lung carcinomas and lymphoid malignancies. The following applies: read-out: EC50, mechanism-based cytotoxicity; cited from earlier work.
For data set [12], the system named is resistance to JAK-2 inhibitors associated with BCL-XL elevation. The following applies: cited from earlier work.
For data set [13] the following is noted: 400 mg once daily ketoconazole; 10 subjects with cancer; cited from earlier work.
Data set [14] concerns spleen volume. The following applies: spleen volume inhibition, fixed to a published value, cited from earlier work.
The test system of data set [15] is patients with intermediate or high-risk primary or secondary myelofibrosis. The following applies: ruxolitinib monotherapy; cited from earlier work.
Where [16] appears, read: 22 subjects with ruxolitinib dose reduction.

Consider `CN(C)CC[C@H](CSc1ccccc1)Nc1ccc(S(=O)(=O)NC(=O)c2ccc(N3CCN(Cc4ccccc4-c4ccc(Cl)cc4)CC3)cc2)cc1[N+](=O)[O-]` [ABT-737], for which, in data set [1], the cell killing activity result is given as “cell killing activity”. Also, the “endogenous erythroid colonies growing in the absence of erythropoietin” value in [2] (500 nM ABT-737) was “significantly inhibited”; in data set [2] (100-300 nM ABT-737 combined with a JAK-2 inhibitor), “further suppressed”. For the same compound, the “proliferation of myeloproliferative neoplasm cells” value in data set [2] is “ability to block the proliferation”.
Turning to `CC1(C)CCC(c2ccc(Cl)cc2)=C(CN2CCN(c3ccc(C(=O)NS(=O)(=O)c4ccc(N[C@H](CCN5CCOCC5)CSc5ccccc5)c(S(=O)(=O)C(F)(F)F)c4)cc3)CC2)C1` [Navitoclax, 4-(4-{[2-(4-chlorophenyl)-5,5-dimethyl-1-cyclohexen-1-yl]methyl}-1-piperazinyl)-N-[(4-{[(2R)-4-(4-morpholinyl)-1-(phenylsulfanyl)-2-butanyl]amino}-3-[(trifluoromethyl)sulfonyl]phenyl)sulfonyl]benzamide], in data set [3], the “Navitoclax EC50, estimate” value was 4.37 µg/mL. Further, the “Navitoclax EC50, estimate and 95% confidence interval” value in [4] (effect on platelets, fitted to data of 34 subjects) is given as 3.61 (1.97; 6.58) mg/L. In addition, the “cell lines with potent single agent activity” value in data set [5] is 10 of 22. The “Navitoclax Emax” value in [6] (fixed, based on Kaefer et al.) was 5. Further, in data set [7], the Ki is at most 0.001 µM. Further, in data set [8] (human, in vivo), the “Dose Delay/Interruption: More Than One Interruption, %” value was “(39.1) %”; the “Dose Delay/Interruption: No Interruption, %” value is given as “(34.8) %”; the “Dose Delay/Interruption: Only One Interruption, %” value is “(26.1) %”; the “Dose Reduction: More Than One Dose Reduction, %” value is on record as “(39.1) %”. For the same compound, in data set [8] (human, in vivo), the “Dose Reduction: No Dose Reduction, %” value was “(17.4) %”; the “Dose Reduction: Only One Dose Reduction, %” value was “(43.5) %”; the “Reasons for Dose Delay/Interruption: Adverse Events, %” value was “(52.2) %”; the “Reasons for Dose Delay/Interruption: Anemia, %” value is recorded as “(4.3) %”. Further, in [8] (human, in vivo), the “Reasons for Dose Delay/Interruption: Diarrhea, %” value is “(4.3) %”; the “Reasons for Dose Delay/Interruption: Other adverse events, %” value was “(17.4) %”; the “Reasons for Dose Delay/Interruption: Thrombocytopenia, %” value is listed as “(34.8) %”; the “Reasons for Dose Reduction: Adverse Events, %” value is given as “(73.9) %”. Moreover, in data set [8] (human, in vivo), the “Reasons for Dose Reduction: Anemia, %” value is “(17.4) %”; the “Reasons for Dose Reduction: Diarrhea, %” value is given as “(8.7) %”; the “Reasons for Dose Reduction: Other adverse events, %” value is reported as “(30.4) %”; the “Reasons for Dose Reduction: Thrombocytopenia, %” value was “(47.8) %”. In addition, in data set [8] (in vivo), the “Reasons for Dose Delay/Interruption: Other (non-adverse event), %” value is “(30.4) %” and the “Reasons for Dose Reduction: Other (non-adverse event), %” value is reported as “(17.4) %”. For the same compound, in data set [1], the cell killing activity entry was “cell killing activity”. Further, the “survival of mice with JAK-2-mutated tumors” value in [9] (combination of navitoclax and a JAK-2 inhibitor vs either agent alone) was “superior to either agent alone”. Besides, the growth of tumors result in [9] (navitoclax added to a JAK-2 inhibitor) is listed as “significantly slowing the growth of tumors”. In addition, in data set [10], the “decrease of navitoclax AUC∞” value was 41% and the “decrease of navitoclax Cmax” value worked out at 16%. The EC50 in data set [11] is at most 1 µM. In data set [12], the “overcoming resistance to JAK-2 inhibitors” value is “ability to overcome that resistance”. In data set [13], the “impact on navitoclax Cmax” value is given as “no impact” and the “increase of navitoclax AUC∞” value is 1.55 fold.
As for `N#CC[C@H](C1CCCC1)n1cc(-c2ncnc3[nH]ccc23)cn1` [Ruxolitinib, (R)-3-(4-(7H-pyrrolo[2,3-d]pyrimidin-4-yl)-1H-pyrazol-1-yl)-3-cyclopentylpropanenitrile], the “Ruxolitinib EC50, estimate” value in data set [3] was 0.0144 µg/mL. In addition, the “Ruxolitinib Emax” value in data set [14] is reported as 0.765 fixed; in data set [14] (listed as ruxolitinib), 0.765; in data set [6] (fixed, assumed (JAKAFI approval package)), 1. The “ruxolitinib factor for relative pseudo baseline platelet count” value in [4] is on record as 1.53 fold. Besides, the “drop in platelet count” value in data set [4] (at average ruxolitinib concentration) is on record as around 36%. Also, the “BaselineFactor (ruxolitinib factor on baseline platelet count), estimate and 95% confidence interval” value in data set [4] (pseudo baseline at initiation of ruxolitinib relative to baseline at initiation of navitoclax) is listed as 1.53 (1.41; 1.65). In addition, the “patients achieving spleen volume reduction of ≥35% (SVR35)” value in [15] is reported as “approximately 40%”. Further, the “time after start of monotherapy within which SVR35 is typically observed” value in data set [15] is given as at most 12 weeks. The entries for the “Ruxolitinib EC50” value in data set [6] and in data set [6] (listed as ruxolitinib) were 0.0825 µg/mL and 0.08248 µg/mL, respectively. The “ruxolitinib dose reductions due to anemia” value in data set [8] (setting [16]) stood at 18.2%. Moreover, the “ruxolitinib dose reductions due to thrombocytopenia” value in [8] (setting [16]) amounted to 86.4%. Further, in data set [8] (25 subjects enrolled on ruxolitinib >10 mg BID), the “subjects whose ruxolitinib dose was reduced to 10 mg BID” value was found to be 88%.
